Conditions: Liquid, Closed cell (Static) method

F/C=C/C(F)(F)F [trans-1,3,3,3-tetrafluoropropene]
Conditions	vapor or sublimation pressure [kPa]
280.15 K	276.5
285.18 K	328.2
290.12 K	386
295.11 K	452.1
300.15 K	526.7
305.15 K	609.7
310.34 K	706.3
315.18 K	805
320.1 K	916.6
325.17 K	1043.5
330.13 K	1178.1

— the NIST ThermoML archive (doi:10.1016/j.jct.2017.03.032)
